Assay results taken from patent US5512687A, “Compounds for inhibiting immune response” (Procept, Inc., priority 1994, dated 1996).
Read-outs that look alike come from different tables or passages of the source.

What was measured:
[1] = system: human peripheral blood lymphocyte (PBL) proliferation; type: cell-based
Jurkat cell line = assay: in vitro toxicity study, cytotoxicity (Jurkat cell); type: cell-based

## Cn1cc[n+]([Ru-3]([n+]2ccn(C)c2)([n+]2ccn(C)c2)([n+]2ccn(C)c2)([n+]2ccn(C)c2)[n+]2ccn(C)c2)c1.F[P-](F)(F)(F)(F)F.F[P-](F)(F)(F)(F)F.F[P-](F)(F)(F)(F)F [Ru(1-MeIm)6 !(PF6)3]
[1]
  IC50: 0.19 ± 0.16 µg/mL
Jurkat cell line
  Cytotoxicity (Jurkat cell) IC50: 115 µg/mL

## Cn1cc[n+]([Ru-4]([n+]2ccn(C)c2)([n+]2ccn(C)c2)([n+]2ccn(C)c2)([n+]2ccn(C)c2)[n+]2ccn(C)c2)c1.[Cl-].[Cl-] [Ru(1-MeIm)6 !Cl2]
[1]
  IC50: 0.052 ± 0.03 µg/mL
Jurkat cell line
  Cytotoxicity (Jurkat cell) IC50: 2000 µg/mL

## Cn1cc[n+]([Ru-3]([n+]2ccn(C)c2)([n+]2ccn(C)c2)([n+]2ccn(C)c2)([n+]2ccn(C)c2)[n+]2ccn(C)c2)c1.[Cl-].[Cl-].[Cl-] [Ru(1-MeIm)6 !Cl3]
[1]
  IC50: 0.12 ± 0.1 µg/mL
Jurkat cell line
  Cytotoxicity (Jurkat cell) IC50: > 300 µg/mL

## [Cl-].[Cl-].c1c[n+]([Ru-4]([n+]2cc[nH]c2)([n+]2cc[nH]c2)([n+]2cc[nH]c2)([n+]2cc[nH]c2)[n+]2cc[nH]c2)c[nH]1 [Ru(Im)6 !Cl2]
[1]
  IC50: 0.0067 ± 0.003 µg/mL
Jurkat cell line
  Cytotoxicity (Jurkat cell) IC50: 200 µg/mL

## [Cl-].[Cl-].[Cl-].c1c[n+]([Ru-3]([n+]2cc[nH]c2)([n+]2cc[nH]c2)([n+]2cc[nH]c2)([n+]2cc[nH]c2)[n+]2cc[nH]c2)c[nH]1 [Ru(Im)6 !Cl3]
[1]
  IC50: 0.005 ± 0.004 µg/mL
Jurkat cell line; values are extrapolated
  Cytotoxicity (Jurkat cell) IC50: 530 µg/mL

## Ru(4-MeIm)6 !Cl2
[1]
  IC50: 0.09 ± 0.07 µg/mL
Jurkat cell line; values are extrapolated
  Cytotoxicity (Jurkat cell) IC50: 1040 µg/mL
